In patent US9279769B2, “Proteins that efficiently generate singlet oxygen” (The Regents of the University of California, priority 2010, dated 2016):

Tests used:
HEK293 cells [1] = assay: growth rate of HEK293 cells overexpressing the protein, no light; type: cell-based; conditions: for Cell number: HEK293 cells; for toxicity in the absence of light: overexpression in cells, no illumination
Source text: (§1) Feedback pathways involving enzymes such as riboflavin kinase (EC 2.7.1.26) and FAD (flavin adenine dinucleotide) diphosphatase (EC 3.6.1.18) probably regulate intracellular FMN to titrate endogenous flavoproteins and miniSOG [25]. Riboflavin kinase phosphorylates riboflavin into FMN, while FAD diphosphatase catalyzes the production of FMN from FAD.
DNA encoding miniSOG with codons optimized for mammals was synthesized by overlap extension PCR [48]. MiniSOG fusions were cloned into pcDNA3.1 vector. HEK293 and HeLa cells were transfected with miniSOG or chimera cDNAs using Fugene, then imaged 24-48 h later. Cultured cortical neurons were transfected by Amaxa electroporation (Lonza AG, Germany) and imaged 1-2 wk later.

[2] = absorbance spectrum, extinction coefficients; type: physicochemical
Procedure: (§2) To increase the brightness of the C426G mutant, we also performed saturation mutagenesis of other residues surrounding the chromophore binding site. […] The ^1O2 quantum yield of miniSOG0.2 (0.47±0.05) was measured using anthracene-9,10-dipropionic acid (ADPA) as a ^1O2 sensor (FIG. 1E). Free FMN was used as the standard for the measurement of ^1O2 generation (quantum yield 0.51).
(§3) […] was synthesized by overlap extension PCR [48]. Genetic libraries were constructed by saturation and random mutagenesis and DNA shuffling. Mutants were fused to IFP1.4 by overlap extension PCR and cloned into a modified pBAD vector containing the heme oxygenase-1 gene from cyanobacteria. Libraries were expressed in E. coli strain TOP10 and screened by imaging the agar plates with colonies in the IFP channel before and after blue light illumination. Protein purification and spectroscopic characterization experiments were done as described.

HEK293 cells [3] = assay: FMN content of HEK293 cells after overexpression; type: cell-based; conditions: overexpression in HEK293 cells
Source text: as §1

[4] = fluorescence quantum yield; type: physicochemical
Procedure: (§4) FIG. 3. (A) Absorbance spectrum of miniSOG0.2 determined between 400 nm and 500 nm (B) Normalized absorbance (left) and emission (right) spectra of miniSOG0.2. The fluorescence quantum yield of miniSOG0.2 was determined to be 0.30. (C) ADPA degradation by miniSOG0.2. ADPA was mixed with miniSOG0.2 in PBS and illuminated at 480/30 nm. ADPA emission spectra taken after indicated illumination times. (D) Degradation of ADPA by illumination of miniSOG0.2 (▴) or free FMN (♦). Flavin mononucleotide (FMN) was used as the standard for the quantum yield measurement. The data represents one typical measurement. The averaged absorbance intensity of FMN and miniSOG0.2 in this measurement is 0.064 and 0.070 respectively in arbitrary units. Singlet-oxygen-generation quantum yield of miniSOG0.2 was determined to be 0.47±0.05 (from three independent measurements).
as §3

[5] = 1O2 quantum yield measured with ADPA as 1O2 sensor, FMN as standard; type: physicochemical; conditions: for 1O2 (singlet oxygen generation) quantum yield: ADPA sensor in PBS, illuminated at 480/30 nm, FMN standard
Procedure: as §4, §2

[6] = literature value; cited from earlier work
[7] = target: T1, Arabidopsis thaliana phototropin 2 (AtPhot2) LOV2 domain (residues 387-492) variant AtminiSOG0.2 (miniSOG0.2, miniSOG), 1387M/N390S/S394T/S409G/C426G/F470L, SEQ ID NO: 2 (Arabidopsis thaliana, UniProt P93025, C426G/F470L/N390S/S394T/S409G); assay: Equilibrium dialysis of miniSOG (FMN dissociation constant); type: binding
T1 construct: can be engineered into a small (106-residue) SOG; made in house
Source text: Mass spectrometry confirmed that the flavin cofactor is FMN. Equilibrium dialysis reported a dissociation constant of 170±8 pM (Table 2), similar to values for some flavoproteins (e.g., 260±60 pM for a flavodoxin [23]) and consistent with the crystal structures of LOV domains, which show FMN deeply buried inside the protein core.

flavodoxin = conditions: literature value for a flavodoxin [23]; read-out: dissociation constant; cited from earlier work

AtminiSOG0.2: 106-residue mutant of Arabidopsis thaliana phototropin 2 residues 387-492, 1387M/N390S/S394T/S409G/C426G/F470L, SEQ ID NO:2, binds FMN
Cell number (HEK293 cells [1]; Day 0, transfection efficiency >90%): 200 10^3 | Cell number (HEK293 cells [1]; Day 1, transfection efficiency >90%): 390 10^3 | Cell number (HEK293 cells [1]; Day 2, transfection efficiency >90%): 940 10^3 | toxicity in the absence of light (HEK293 cells [1]): no obvious toxicity | toxicity in the absence of light (HEK293 cells [1]; listed as AtminiSOG): without any obvious toxicity | extinction coefficient ([2]; at 448 nm): (16.7±0.7)×10^3 M^−1cm^−1 | extinction coefficient ([2]; at 448 nm, listed as AtminiSOG): 16,700 M^−1cm^−1 | extinction coefficient ([2]; at 473 nm): (13.6±0.5)×10^3 M^−1cm^−1 | extinction coefficient ([2]; at 473 nm, listed as AtminiSOG): 13,600 M^−1cm^−1 | increase of FMN content (HEK293 cells [3]): ~3 fold | fluorescence quantum yield ([4]; listed as AtminiSOG): 0.30 | fluorescence quantum yield ([4]; listed as miniSOG): 0.37 | fluorescence quantum yield ([4]; listed as miniSOG0.2): 0.30 | 1O2 quantum efficiency relative to ReAsH on a tetracysteine motif [5]: about 20 times | 1O2 (singlet oxygen generation) quantum yield ([5]; listed as AtminiSOG): 0.47 | 1O2 (singlet oxygen generation) quantum yield ([5]; listed as miniSOG0.2): 0.47±0.05

O=c1ccc2nc3ccc(O)c([As]4SCCS4)c3oc-2c1[As]1SCCS1 [ReAsH]
1O2 quantum yield [6]: 0.024

Cc1cc2nc3c(=O)[nH]c(=O)nc-3n(C[C@H](O)[C@H](O)[C@H](O)COP(=O)(O)O)c2cc1C [Free FMN, flavin mononucleotide]
1O2 quantum yield [6]: 0.51

CC1=NC(=Cc2ccc(O)cc2)C(=O)N1C [naked GFP chromophore]
1O2 quantum yield [6]: 0.004

Cc1cc2nc3c(=O)[nH]c(=O)nc-3n(C[C@H](O)[C@H](O)[C@H](O)COP(=O)(O)O)c2cc1C [FMN, flavin mononucleotide]
Kd ([7]; [apo] * [FMN]/[holo], equilibrium dialysis, dialysis time 24 hrs): 0.124 ± 0.0057 nM | Kd ([7]; [apo] * [FMN]/[holo], equilibrium dialysis, dialysis time 48 hrs): 0.174 ± 0.0053 nM | Kd ([7]; [apo] * [FMN]/[holo], equilibrium dialysis, dialysis time 72 hrs): 0.17 ± 0.0084 nM | Kd ([7]; dissociation constant (binds endogenous FMN very tightly), summary statement): ~0.1 nM | Kd ([7]; dissociation constant, equilibrium dialysis, FMN cofactor): 0.17 ± 0.008 nM | Kd (flavodoxin): 0.26 ± 0.06 nM
